# Assay results published in patent US11279913B2, “Sperm processing method, apparatus and related media compositions” (Inguran, LLC, priority 2017, dated 2022).
# Legend:
# Assay type in all cases: cell-based
# bovine sperm [1] = test: Post-thaw visual motility of unstained non-sorted sperm frozen in erythritol test media, Example 17 first test
# Procedure: Standard bovine sperm sorting uses sheath fluid comprising 68 mM Fructose, 80 mM Citrate and 243 mM TRIS at pH 6.80 and osmolarity 290-300 mOsm. […] Combining 88 volumes of TRIS A with 12 volumes of pure glycerol creates a solution called TRIS B (The “B Fraction”). In the case of standard sperm sorting, the “B Fraction” may optionally contain no egg yolk and may be called “[…] Fraction” still containing 12 volumes of pure glycerol. […] The pH of all media was 6.70-6.75 and the osmolarity was 290-305 mOsm. The same two bulls were used for each of two tests and were measured for post-thaw quality at the same time. The first test was done with unstained non-sorted sperm similar to standard “conventional freezing.” The second test was done using different sheath fluids for sorting sperm. The first test compared control (standard media) to 7 alternate media (A-G) with compositions including various amounts of erythritol and in some cases glycine. 10 milliliters of sperm of each bull at a concentration of 100 million sperm per milliliter was cooled in standard TRIS A (control media) over 90 minutes from room temperature to about 4-6° C. Samples were then divided into 1 milliliter aliquots and 0.5 mL of cold TEST-B media was added, held for 15 minutes before an additional 0.5 mL of TEST-B media was added. […]
# sorted bovine sperm = test: Motility of sorted bovine sperm stored in CaproGLY or CaproERY at 17° C. (visual and CASA), Example 15; conditions: holding times longer than 4 days; erythritol versus glycerol in Caprogen
# Procedure: Standard Caprogen (with glycerol) is referred to as “CaproGLY” and erythritol containing Caprogen is referred to as “CaproERY.”
# Preparation of media in volume of 100 mL: 95 mL of the respective media working solution is combined with 5 mL of egg yolk, stirred for 15 minutes, held overnight at 4° C., centrifuged for 60 minutes at 1200 G in 50 mL Falcon Tubes (clarified). On day of use, nitrogen gas is bubbled through the clarified media for 15 minutes.
# Sorting of the sperm to be held in the two fresh extenders: Fresh Ejaculates of 3 Jersey bulls are bulk sorted according to standard proprietary sex sorting methods disclosed in other patents. In brief, sperm are washed, concentrated and resuspended in a Hepes buffered TRIS Citrate extender to normalize concentration to about […] and pH about 7.15. Each 1 mL of staining comprises: 0.150 mL of sperm solution (about 160 million sperm), 64 nanomoles of Hoechst 33342 in 8 microliters, […] of staining TALP and 100 nanomoles of FD&C food dye. […]
# The formulated sperm are filled into 0.25 cc straws, sealed and stored horizontally at 17° C. for up to nine days. On the specified test days, a straw is opened and checked for visual motility (counted by eye by technician using microscope analysis on heated stage), CASA total motility and CASA progressive motility using a Hamilton Thorne IVOS system. […]
# bovine sperm [2] = test: Motility of stained unsorted bovine sperm held in Caprogen-type fresh media (fluorescent CASA), Example 14
# Source text: This is with “conventional” (unsorted) sperm stained with Hoechst 33342 (to facilitate CASA using fluorescence).
# The fresh extender is a media similar to Caprogen, which contains 5% (v/v) egg yolk and is bubbled with nitrogen gas prior to diluting sperm.
# In Caprogen with glycerol, the concentration of glycine is 135 millimolar and the concentration of glycerol is 135 millimolar. Control Media 1 was made with these same concentrations, while the balance of test media (Media 2-7) were made with the following concentrations as shown in Table 13:
# Fresh Bovine Ejaculates of 5 bulls were diluted to 160 million sperm per mL into Staining TALP, combined with Hoechst 33342 DNA stain, incubated 60 minutes at 34° C. (as standard staining for XY sperm sorting). Once stained, the sperm in TALP were diluted in the related media to a new concentration of 15 million sperm per mL and placed into 0.25 cc straws, sealed and held horizontal at 18° C. for 4 days. On each day, one straw of sperm was warmed for 15 minutes at 34° C. and the contents of about 200 microliters from the straw were combined with 100 microliters of fresh media identical to the specified test media used to hold the sperm. Sperm were analyzed on fluorescent CASA (Hamilton Thorne IVOS II) using UV illumination.
# bovine sperm [3] = test: Post-thaw visual motility of sperm sorted with different sheath fluids, Example 17 second test; conditions: up to 60 mM erythritol in sheath fluid; standard post-sort handling
# Procedure: Standard bovine sperm sorting uses sheath fluid comprising 68 mM Fructose, 80 mM Citrate and 243 mM TRIS at pH 6.80 and osmolarity 290-300 mOsm. […] Combining 88 volumes of TRIS A with 12 volumes of pure glycerol creates a solution called TRIS B (The “B Fraction”). In the case of standard sperm sorting, the “B Fraction” may optionally contain no egg yolk and may be called “[…] Fraction” still containing 12 volumes of pure glycerol. […] The pH of all media was 6.70-6.75 and the osmolarity was 290-305 mOsm. The same two bulls were used for each of two tests and were measured for post-thaw quality at the same time. The first test was done with unstained non-sorted sperm similar to standard “conventional freezing.” The second test was done using different sheath fluids for sorting sperm. The second test compared a CONTROL (standard) sheath fluid to three alternate sheath fluids (H-J). After sorting all samples were handled in the identical manner to standard sperm sorting. A 3.5 mL volume of catch fluid (TRIS A) is placed in each catch tube and sorted sperm are sorted into the catch tube to a volume of 20 mL. That volume of fluid is then cooled for 90 minutes to about 4-6° C. then an equal volume of cold […] Fraction is added. […]
Structure (SMILES),erythritol concentration giving optimal freezing results (bovine sperm [1]),preserving quality as seen in motility (in words) (sorted bovine sperm),"support of bovine sperm motility (in words) (bovine sperm [2]; as much as 400 millimolar Erythritol in fresh bovine extender, 4 day period)",effect on sperm quality when present in sheath fluid (in words) (bovine sperm [3]),"support of sperm motility (in words) (bovine sperm [2]; up to 4 days, 135 millimolar glycerol, or its replacement with erythritol, in Caprogen fresh media)"
OC[C@@H](O)[C@@H](O)CO [erythritol],15 to 50 mM,better at preserving quality as seen in motility,good support of bovine sperm motility,beneficial to sperm quality,
"OCC(O)CO [glycerol, reference compound]",,,,,beneficial for supporting sperm motility
